Laboratory results from PMC6821926, “Diaminoquinazoline MMV675968 from Pathogen Box inhibits Acinetobacter baumannii growth through targeting of dihydrofolate reductase” (Scientific Reports, 2019).

Legend:
Assay type in all cases: biochemical
[1] = target: T1, A. baumannii dihydrofolate reductase (AbDHFR) (Acinetobacter baumannii, UniProt A0A098SJI9); assay: DHFR activity assay (A340) in lysate of E. coli BL21(DE3) overexpressing AbDHFR; also E. coli surrogate growth and DHFR activity in treated A. baumannii
T1 construct: gene folA; AbDHFR expressed from pET15b in E. coli BL21(DE3)

human DHFR (hDHFR) = target: T2, human DHFR (hDHFR) (Homo sapiens, UniProt P00374); assay: DHFR activity assay (A340) in lysate of E. coli BL21(DE3) overexpressing hDHFR
T2 construct: hDHFR (from pL0035) expressed from pET15b in E. coli BL21(DE3)
T2 sequence (P00374 1-187): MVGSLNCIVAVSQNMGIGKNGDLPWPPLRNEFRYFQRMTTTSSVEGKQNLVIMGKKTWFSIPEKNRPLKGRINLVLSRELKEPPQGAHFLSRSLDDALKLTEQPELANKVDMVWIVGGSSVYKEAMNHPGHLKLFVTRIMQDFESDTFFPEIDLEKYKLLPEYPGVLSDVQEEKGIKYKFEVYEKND

[2] = target: T1, A. baumannii dihydrofolate reductase (AbDHFR); assay: DHFR activity assay (A340) in lysate of E. coli BL21(DE3) overexpressing AbDHFR

T1 sequence (A0A098SJI9 entry or part of it): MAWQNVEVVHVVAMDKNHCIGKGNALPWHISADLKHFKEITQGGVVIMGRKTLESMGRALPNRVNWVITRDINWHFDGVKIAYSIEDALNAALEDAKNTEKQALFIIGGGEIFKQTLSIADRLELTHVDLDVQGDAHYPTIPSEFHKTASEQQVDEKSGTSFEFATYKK

Row | SMILES | IC50 [1] | IC50 (human DHFR (hDHFR)) | IC50 [2]
1 | COc1ccc(OC)c(NCc2ccc3nc(N)nc(N)c3c2Cl)c1 [MMV675968] | 8.5 nM | 492 nM | 
2 | CCc1nc(N)nc(N)c1-c1ccc(Cl)cc1 [PYR, pyrimethamine] |  |  | 81.7 nM
